Tests used:
[1] = biological target: NAMPT (human, recombinant, C-terminally His-tagged) (Homo sapiens, UniProt P43490); experiment: Time-Resolved Fluorescence Resonance Energy Transfer (TR-FRET) Binding Assay of NAMPT; settings: without substrates; 6.8 nM NAMPT, 200 nM probe, 3 hours equilibration
In short: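 In a displacement format, the nicotinamide-site tracer at 200 nM competed with test compound for 6.8 nM enzyme detected via 1 nM terbium anti-His antibody; incubation lasted 3 hours at room temperature in 50 mM HEPES pH 7.5, 100 mM NaCl. Normalized 520/495 nm emission ratios gave IC50 values.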

[2] = biological target: NAMPT (Homo sapiens, UniProt P43490); experiment: TR-FRET Binding Assay of NAMPT with PRPP; settings: with 200 μM PRPP and 2.5 mM ATP; 2 nM NAMPT, 2 nM probe, 16 hours equilibration
Chain of NAMPT (P43490 whole entry): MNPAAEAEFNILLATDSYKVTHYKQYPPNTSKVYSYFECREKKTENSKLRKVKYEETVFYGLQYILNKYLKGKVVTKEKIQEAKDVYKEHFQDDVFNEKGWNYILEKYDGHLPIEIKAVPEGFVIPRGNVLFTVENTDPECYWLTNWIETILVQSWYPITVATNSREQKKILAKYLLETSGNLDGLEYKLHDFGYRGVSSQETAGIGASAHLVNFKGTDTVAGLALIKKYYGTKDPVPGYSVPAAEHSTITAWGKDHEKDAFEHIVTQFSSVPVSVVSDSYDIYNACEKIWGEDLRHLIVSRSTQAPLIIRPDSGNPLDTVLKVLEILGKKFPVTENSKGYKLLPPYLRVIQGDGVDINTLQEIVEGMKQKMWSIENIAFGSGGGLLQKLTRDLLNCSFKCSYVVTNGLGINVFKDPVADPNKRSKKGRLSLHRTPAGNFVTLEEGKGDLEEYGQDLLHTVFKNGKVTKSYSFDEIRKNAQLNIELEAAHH
In short: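 Substrate-containing variant: 200 μM PRPP plus 2.5 mM ATP are added to 2 nM NAMPT and 2 nM probe, with a 16-hour incubation ahead of TR-FRET reading.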

[3] = tested on: PC3 cells; experiment: NAMPT Cell Proliferation Assay; format: cell-based; settings: Homo sapiens, PC-3, 120 h, 5 days incubation, cell viability by Cell Titer Glo
In short: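 PC3 cells were plated at 500 cells/well in RPMI with 10% heat-inactivated FBS, left to attach overnight, then given compounds in 10-fold dilutions from 10 μM to 1×10^−5 μM. After 5 days at 37° C and 5% CO2, viability was read by luminescence and IC50s came from sigmoidal fits of percent inhibition.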

Chain of NAMPT (human, recombinant, C-terminally His-tagged) (P43490 whole entry): as above

IC50 [1] [nM]	IC50 [2] [nM]	IC50 [3] [nM]	Compound
65.8	0.169	2.42	O=C(NCc1ccn2ccnc2c1)c1ccc(-c2cnn(CC3CCCO3)c2)s1 (stereo not drawn) [Example 248, N-(imidazo[1,2-a]pyridin-7-ylmethyl)-5-[1-(tetrahydrofuran-2-ylmethyl)-1H-pyrazol-4-yl]thiophene-2-carboxamide]
817	0.72	66.5	CC(C)OCC1CN(c2ncc(C(=O)NCc3ccn4ccnc4c3)s2)C(=O)O1 (stereo not drawn) [Example 249, N-(imidazo[1,2-a]pyridin-7-ylmethyl)-2-{2-oxo-5-[(propan-2-yloxy)methyl]-1,3-oxazolidin-3-yl}-1,3-thiazole-5-carboxamide]
20.5	0.23	0.675	CC(C)[C@@H]1COC(=O)N1c1ccc(C(=O)NCc2ccn3ccnc3c2)s1 [Example 250, N-(imidazo[1,2-a]pyridin-7-ylmethyl)-5-[(4R)-2-oxo-4-(propan-2-yl)-1,3-oxazolidin-3-yl]thiophene-2-carboxamide]
2200	0.63	1840	O=C(NCc1ccn2ccnc2c1)c1cnc(N2CC(CO)OC2=O)s1 (stereo not drawn) [Example 251, 2-[5-(hydroxymethyl)-2-oxo-1,3-oxazolidin-3-yl]-N-(imidazo[1,2-a]pyridin-7-ylmethyl)-1,3-thiazole-5-carboxamide]
37.4	0.274	1.91	O=C(NCc1ccn2ccnc2c1)c1ccc(-c2cnn(CC3CCOC3)c2)s1 (stereo not drawn) [Example 252, N-(imidazo[1,2-a]pyridin-7-ylmethyl)-5-[1-(tetrahydrofuran-3-ylmethyl)-1H-pyrazol-4-yl]thiophene-2-carboxamide]
14.4	0.229	0.702	O=C(NCc1ccn2ccnc2c1)c1ccc(-c2cnn(CC3CCCOC3)c2)s1 (stereo not drawn) [Example 253, N-(imidazo[1,2-a]pyridin-7-ylmethyl)-5-[1-(tetrahydro-2H-pyran-3-ylmethyl)-1H-pyrazol-4-yl]thiophene-2-carboxamide]
31.3	0.306	0.938	CC1(Cn2cc(-c3ccc(C(=O)NCc4ccn5ccnc5c4)s3)cn2)COC1 [Example 254, N-(imidazo[1,2-a]pyridin-7-ylmethyl)-5-{1-[(3-methyloxetan-3-yl)methyl]-1H-pyrazol-4-yl}thiophene-2-carboxamide]
8190	2.22	4290	CC(C)OC[C@@H]1CN(c2ncc(C(=O)NCc3ccn4ccnc4c3)s2)C(=O)O1 [Example 255, N-(imidazo[1,2-a]pyridin-7-ylmethyl)-2-{(5S)-2-oxo-5-[(propan-2-yloxy)methyl]-1,3-oxazolidin-3-yl}-1,3-thiazole-5-carboxamide]
126	0.266	9.84	CC(C)OC[C@H]1CN(c2ncc(C(=O)NCc3ccn4ccnc4c3)s2)C(=O)O1 [Example 256, N-(imidazo[1,2-a]pyridin-7-ylmethyl)-2-{(5R)-2-oxo-5-[(propan-2-yloxy)methyl]-1,3-oxazolidin-3-yl}-1,3-thiazole-5-carboxamide]
101	0.344	15.2	COCC(=O)N1CCC(c2ccc(C(=O)NCc3ccn4ccnc4c3)s2)CC1 [Example 257, N-(imidazo[1,2-a]pyridin-7-ylmethyl)-5-[1-(methoxyacetyl)piperidin-4-yl]thiophene-2-carboxamide]
113	0.558	32.5	CC(=O)N1CCC(c2ccc(C(=O)NCc3ccn4ccnc4c3)s2)CC1 [Example 258, 5-(1-acetylpiperidin-4-yl)-N-(imidazo[1,2-a]pyridin-7-ylmethyl)thiophene-2-carboxamide]
26.6	0.169	2.54	CC(C)C(=O)N1CCC(c2ccc(C(=O)NCc3ccn4ccnc4c3)s2)CC1 [Example 259, N-(imidazo[1,2-a]pyridin-7-ylmethyl)-5-[1-(2-methylpropanoyl)piperidin-4-yl]thiophene-2-carboxamide]
46.5	0.351	8.06	O=C(NCc1ccn2ccnc2c1)c1ccc(C2CCN(C(=O)C3CC3)CC2)s1 [Example 260, 5-[1-(cyclopropylcarbonyl)piperidin-4-yl]-N-(imidazo[1,2-a]pyridin-7-ylmethyl)thiophene-2-carboxamide]
62.7	0.231	5.1	O=C(NCc1ccn2ccnc2c1)c1ccc(C2CCN(C(=O)C3CCOC3)CC2)s1 (stereo not drawn) [Example 261, N-(imidazo[1,2-a]pyridin-7-ylmethyl)-5-[1-(tetrahydrofuran-3-ylcarbonyl)piperidin-4-yl]thiophene-2-carboxamide]
3.67	0.221	1.87	O=C(NCc1ccn2ccnc2c1)c1ccc(C2CCN(C(=O)CC3CCOCC3)CC2)s1 [Example 262, N-(imidazo[1,2-a]pyridin-7-ylmethyl)-5-[1-(tetrahydro-2H-pyran-4-ylacetyl)piperidin-4-yl]thiophene-2-carboxamide]
48.6	0.247	2.43	CC(C)CC(=O)N1CCC(c2ccc(C(=O)NCc3ccn4ccnc4c3)s2)CC1 [Example 263, N-(imidazo[1,2-a]pyridin-7-ylmethyl)-5-[1-(3-methylbutanoyl)piperidin-4-yl]thiophene-2-carboxamide]
40.4	0.412	6.69	O=C(NCc1ccn2ccnc2c1)c1ccc(C2CCN(C(=O)c3ccno3)CC2)s1 [Example 264, N-(imidazo[1,2-a]pyridin-7-ylmethyl)-5-[1-(1,2-oxazol-5-ylcarbonyl)piperidin-4-yl]thiophene-2-carboxamide]
33.1	0.266	1.59	O=C(NCc1ccn2ccnc2c1)c1ccc(-c2cnn(CC3CCOCC3)c2)s1 [Example 265, N-(imidazo[1,2-a]pyridin-7-ylmethyl)-5-[1-(tetrahydro-2H-pyran-4-ylmethyl)-1H-pyrazol-4-yl]thiophene-2-carboxamide]
120	0.333	606	O=C(NCc1ccn2ccnc2c1)c1ccc(N2CC(CO)OC2=O)s1 (stereo not drawn) [Example 266, 5-[5-(hydroxymethyl)-2-oxo-1,3-oxazolidin-3-yl]-N-(imidazo[1,2-a]pyridin-7-ylmethyl)thiophene-2-carboxamide]
54.3	0.291	665	O=C(NCc1ccn2ccnc2c1)c1ccc(N2C[C@H](O)CC2=O)s1 [Example 267, 5-[(4R)-4-hydroxy-2-oxopyrrolidin-1-yl]-N-(imidazo[1,2-a]pyridin-7-ylmethyl)thiophene-2-carboxamide]
755	0.169	5540	O=C(NCc1ccn2ccnc2c1)c1ccc(N2C[C@@H](O)CC2=O)s1 [Example 268, 5-[(4S)-4-hydroxy-2-oxopyrrolidin-1-yl]-N-(imidazo[1,2-a]pyridin-7-ylmethyl)thiophene-2-carboxamide]
41.2	0.169	15.1	COCCn1cc(-c2ccc(C(=O)NCc3ccn4ccnc4c3)s2)cn1 [Example 269, N-(imidazo[1,2-a]pyridin-7-ylmethyl)-5-[1-(2-methoxyethyl)-1H-pyrazol-4-yl]thiophene-2-carboxamide]
60.9	0.991	973	O=C(NCCCCC1CCN(C(=O)c2ccccc2)CC1)Nc1ccn2ccnc2c1 [Example 270, 1-[4-(1-benzoylpiperidin-4-yl)butyl]-3-imidazo[1,2-a]pyridin-7-ylurea]
51.7	0.169	2.71	CS(=O)(=O)N1CCC(c2ccc(C(=O)NCc3ccn4ccnc4c3)s2)CC1 [Example 271, N-(imidazo[1,2-a]pyridin-7-ylmethyl)-5-[1-(methylsulfonyl)piperidin-4-yl]thiophene-2-carboxamide]
27.2	0.417	15.6	CCc1c(-c2ccc(C(=O)NCc3ccn4ccnc4c3)s2)cnn1CC1CCCCC1 [Example 272, 5-[1-(cyclohexylmethyl)-5-ethyl-1H-pyrazol-4-yl]-N-(imidazo[1,2-a]pyridin-7-ylmethyl)thiophene-2-carboxamide]
49.3	0.555	2.35	COC1(Cn2ncc(-c3ccc(C(=O)NCc4ccn5ccnc5c4)s3)c2C)CCCC(C)(C)C1 (stereo not drawn) [Example 273, N-(imidazo[1,2-a]pyridin-7-ylmethyl)-5-{1-[(1-methoxy-3,3-dimethylcyclohexyl)methyl]-5-methyl-1H-pyrazol-4-yl}thiophene-2-carboxamide]
17.8	0.196	10.4	CC(C)CCC(=O)Nc1ccc(NC(=O)NCc2ccc3nccn3c2)cc1 [Example 274, N-(4-{[(imidazo[1,2-a]pyridin-6-ylmethyl)carbamoyl]amino}phenyl)-4-methylpentanamide]
12.3	0.43	23.9	O=C(CCC1CCCC1)Nc1ccc(NC(=O)NCc2ccc3nccn3c2)cc1 [Example 275, 3-cyclopentyl-N-(4-{[(imidazo[1,2-a]pyridin-6-ylmethyl)carbamoyl]amino}phenyl)propanamide]
